Test results taken from article PMC7024211, “Antifouling Napyradiomycins from Marine-Derived Actinomycetes Streptomyces aculeolatus” (Marine Drugs, 2020).

Key:
P. inhibens = assay: Biofilm inhibition assay (crystal violet); assay type: cell-based, Phaeobacter inhibens; conditions: 31.25 µg/mL
Experimental: (§1) In a 96-well plate, biofilm grown cultures of M. hydrocarbonoclasticus and C. marina were incubated with napyradiomycins (1–12) at a concentration of 31.25 µg/mL. After discarding the media, biofilm inhibition was determined from OD600 measurements of crystal violet stained cells resuspended from the plate bottom with acetic acid.
(§2) Five marine bacterial species were used as models to assess antimicrofouling activity. The biofilm-forming marine bacteria Marinobacter hydrocarbonoclasticus DSM 8798 (ATCC 49840), Cobetia marina DSM 4741, Phaeobacter inhibens DSM 17,395, and Pseusooceanicola batsensis DSM 15,984 were obtained from DSMZ (Leibniz Institute DSMZ—German collection of Microorganisms and Cell Cultures) and Micrococcus luteus. Cultures were routinely grown in liquid marine broth (Carl Roth GmbH, Karlsruhe, Germany) with agitation (180 rpm) or on agar-supplemented marine broth, at 28 °C (M. hydrocarbonoclasticus and C. marina) or 30 °C (P. inhibens and P. batsensis). M. luteus was maintained in Brain Heart Infusion broth (BHI, Becton Dickinson, GmbH, Heidelberg, Germany) with agitation (180 rpm) or on agar-supplemented BHI, at 37 °C.
(§3) The antibiofilm activity of napyradiomycins (1–12) against the five marine bacterial species was assessed in 96-well polystyrene flat bottom microplates (Nunclon Delta Surface, Thermo Scientific, Roskilde, Denmark) as previously reported. For initial screening, bacterial overnight cultures were diluted to an optical density (OD600nm) value of 0.2 and incubated statically at 28 °C (M. hydrocarbonoclasticus, C. marina), 30 °C (P. inhibens, P. batsensis) or 37 °C (M. luteus) in the 96-well microplate in the presence or absence of 31.25 µg/mL of napyradiomycins, solubilized in DMSO. After 24 h (M. hydrocarbonoclasticus, C. marina) or 48 h (P. batsensis, P. inhibens, M. luteus) incubation, the OD600nm was determined. The planktonic cells and media were discarded, and the wells were washed twice with deionized water. The biofilm was fixed for 1 h at 60 °C and stained with crystal violet 0.06% for 10 min. The dye was discarded, and the wells were again washed twice with deionized water. The stained biofilm was solubilized with 30% acetic acid and the OD600nm was determined. […] The percentage of biofilm inhibition was calculated as the amount of biofilm relative to that of the bacterial species without added compounds (with the same amount of DMSO added). CuSO4 (5 μM), a potent antifouling agent used in antifouling paints, was used as reference.
All assays were performed in triplicate, and results are representative of the average and standard error of the mean (SEM). […]

P. batsensis = assay: Biofilm inhibition assay (crystal violet); assay type: cell-based, Pseudooceanicola batsensis; conditions: Pseudooceanicola batsensis
Experimental: as §1, §2, §3
(§4) All assays were performed in triplicate, and results are representative of the average and standard error of the mean (SEM). Statistical analysis was performed in GraphPad Prism 8.0.2, using one-way ANOVA followed by a Dunnett’s multiple comparisons test against the control (species grown with the same amount of DMSO added).

M. luteus [1] = assay: Bacterial growth inhibition assay (OD600nm); assay type: cell-based, Micrococcus luteus
Text: as §2
The antibacterial activity of the napyradiomycins (1–12) was assessed in 96-well polystyrene flat bottom microplates (Nunclon Delta Surface, Thermo Scientific, Roskilde, Denmark) following previously reported procedures. […] After 24 h (M. hydrocarbonoclasticus, C. marina) or 48 h (P. batsensis, P. inhibens, M. luteus) incubation, the OD600nm was determined (Molecular Devices, Spectra Max 190). […] The percentage of growth inhibition was calculated as the amount of growth relative to that of the bacterial species without added compounds (with the same amount of DMSO added). CuSO4 (5 μM), a potent antifouling agent used in antifouling paints, was used as reference.
as §4, with “8.0.2 (San Diego, CA, USA),” for “8.0.2,”

M. luteus [2] = assay: Biofilm inhibition assay (crystal violet); assay type: cell-based, Micrococcus luteus
Experimental: as §1, §2, §3, §4

M. hydrocarbonoclasticus = assay: Biofilm inhibition assay (crystal violet); assay type: cell-based, Marinobacter hydrocarbonoclasticus; conditions: 31.25 µg/mL
Experimental: as §1, §2, §3, §4

C. marina = assay: Biofilm inhibition assay (crystal violet); assay type: cell-based, Cobetia marina; conditions: 31.25 µg/mL
Experimental: as §1, §2, §3, §4

SMILES: CC(C)=CCCC(C)=CCC12OC(C)(C)C(Cl)CC1(Cl)C(=O)c1c(O)cc(O)cc1C2=O (centres unmarked) [Napyradiomycin 1, napyradiomycin A1]
- % Biofilm Inhibition ± SEM P. inhibens (P. inhibens): N.I.
- inhibition at 0.98 µg/mL (P. batsensis; 0.98 µg/mL, read-out: % inhibition of biofilm formation P. batsensis): 4.3 ± 4.3%
- inhibition at 1.95 µg/mL (P. batsensis; 1.95 µg/mL, read-out: % inhibition of biofilm formation P. batsensis): 17.7 ± 0.8%
- inhibition at 3.91 µg/mL (P. batsensis; 3.91 µg/mL, read-out: % inhibition of biofilm formation P. batsensis): 38.1 ± 0.6%
- inhibition at 7.81 µg/mL (P. batsensis; 7.81 µg/mL, read-out: % inhibition of biofilm formation P. batsensis): 28.4 ± 2.8%
- inhibition at 15.6 µg/mL (P. batsensis; 15.6 µg/mL, read-out: % inhibition of biofilm formation P. batsensis): 86.9 ± 1%
- inhibition at 31.25 µg/mL (P. batsensis; 31.25 µg/mL, read-out: % Biofilm Inhibition ± SEM P. batsensis): 87.2 ± 0.1%
- % growth inhibition M. luteus (M. luteus [1]; 3.91 µg/mL): 93.6 ± 1.1%
- inhibition at 0.98 µg/mL (M. luteus [1]; Micrococcus luteus, 0.98 µg/mL): 42.9 ± 0.4%
- inhibition at 1.95 µg/mL (M. luteus [1]; Micrococcus luteus, 1.95 µg/mL): 69.8 ± 0.5%
- inhibition at 3.91 µg/mL (M. luteus [1]; Micrococcus luteus, 3.91 µg/mL): > 90%
- inhibition at 7.81 µg/mL (M. luteus [1]; Micrococcus luteus, 7.81 µg/mL): 96 ± 0.3%
- inhibition at 15.6 µg/mL (M. luteus [1]; Micrococcus luteus, 15.60 µg/mL): 96.5 ± 0.2%
- inhibition at 31.25 µg/mL (M. luteus [1]; Micrococcus luteus, 31.25 µg/mL): 96.1 ± 0.5%
- inhibition at 0.98 µg/mL (M. luteus [2]; Micrococcus luteus, 0.98 µg/mL, read-out: % inhibition of biofilm formation M. luteus): 59 ± 7.4%
- inhibition at 1.95 µg/mL (M. luteus [2]; Micrococcus luteus, 1.95 µg/mL, read-out: % inhibition of biofilm formation M. luteus): 90.3 ± 3.8%
- inhibition at 3.91 µg/mL (M. luteus [2]; Micrococcus luteus, 3.91 µg/mL, read-out: % inhibition of biofilm formation M. luteus): 95.8 ± 2.9%
- inhibition at 7.81 µg/mL (M. luteus [2]; Micrococcus luteus, 7.81 µg/mL, read-out: % inhibition of biofilm formation M. luteus): 96.7 ± 0.5%
- inhibition at 15.6 µg/mL (M. luteus [2]; Micrococcus luteus, 15.6 µg/mL, read-out: % inhibition of biofilm formation M. luteus): 95.4 ± 0.9%
- inhibition at 31.25 µg/mL (M. luteus [2]; Micrococcus luteus, 31.25 µg/mL, read-out: % Biofilm Inhibition ± SEM M. luteus): 88.6 ± 2.9%
- % inhibition of biofilm formation M. luteus (M. luteus [2]; concentrations higher than 1.95 µg/mL): > 90%
- % Biofilm Inhibition ± SEM M. hydrocarbonoclasticus (M. hydrocarbonoclasticus): N.I.
- % Biofilm Inhibition ± SEM C. marina (C. marina): N.I.
